{"source": "patent US11680264B2", "about": "“Methods of modulating melanosome pH and melanin level in cells” (Cornell University, priority 2016, dated 2023)", "key": {"[1]": {"tested_on": "C3H/HeJ mice", "experiment": "Topical treatment of ear, epidermal pigmentation (Fontana Masson)", "type": "in vivo, mouse", "details": "topical on right ear, twice a day for two weeks", "protocol": "Melanocytes also exist in the epidermis at specific areas of mouse skin (e.g., pinnae) (Nordlund et al., Dermatol Clin., 4(3): 407-418 (1986)); thus, these areas were studied to examine the role of sAC in epidermal pigmentation. For analysis of epidermal pigmentation, using C3H/HeJ mice as above, 20 μl of KH7 ([…]), LRE1 (28 mg/ml) or DMSO (vehicle control) was topically applied on the right ear and DMSO was topically applied on the left ear twice a day for two weeks. Ear skin was monitored daily for irritation and changes in pigmentation. After two weeks, mice were euthanized and the treated skin was submitted to a blinded animal pathologist for histological evaluation of the epidermis and special stains (Fontana Masson). This experiment was performed twice with 3 mice per cohort (total n=6)"}, "[2]": {"tested_on": "sAC^KO mouse melanocytes", "experiment": "Cellular eumelanin content", "type": "cell-based", "details": "96 hours", "protocol": "(§1) FIGS. 15A-15J provide the results of experiments analyzing the effect of sAC activity on melanin production. FIG. 15A is a graph illustrating the cellular eumelanin and pheomelanin content in sAC^FF (FF) and sAC^KO (KO) mouse melanocytes. Numbers above bars represent the ratio of pheomelanin to eumelanin. Average of triplicate determinations. FIG. 15B is a graph illustrating the cellular eumelanin content of sAC^FF and sAC^KO mouse melanocytes grown for 96 hours in the absence (−, DMSO) or presence of KH7 (+, 30 μM). Average of triplicate determinations. FIG. 15C is a graph illustrating the fold over baseline cellular eumelanin level of human melanocytes (n=8) treated with KH7 (30 μM) or vehicle (DMSO) for 48 hours. All assays performed in triplicate. Students t-test **P<0.01, ****P<0.0001. FIG. 15D is images of cell pellets of sAC^FF and sAC^KO mouse melanocytes. FIG. 15E is a graph of the melanin levels of pairs of sAC^FF and sAC^KO mouse melanocytes. FIGS. 15F and 15G are images of cell pellets of sAC^FF mouse melanocytes grown in the absence (DMSO, FIGS. 15G and 15F, left panels) or presence of KH7 (FIG. 15G, 30 μM, right panel) or LRE1 (FIG. 15F, 50 μM, right panel) for 96 hours. FIG. 15H is images of cell pellets of human melanocytes (C226, C38) treated with vehicle control (DMSO, left) or KH7 (30 μM, right) for 48 hours. FIG. 15I is images of cell pellets of human melanocytes (C226) treated with vehicle control (DMSO, left) or ESl-09 (10 μM, right) for 48 hours. FIG. 15J is a graph illustrating the fold over baseline cellular (eumelanin) level of human melanocytes treated with ESl-09 (10 μM) or vehicle (DMSO) for 48 hours (n=3, distinct human cell lines). For FIGS. 15E and 15J Students t-test, *p<0.05, **p<0.01, ****p<0.0001."}, "[3]": {"tested_on": "sAC^FF mouse melanocytes", "experiment": "Cellular eumelanin content", "type": "cell-based", "details": "KH7 30 μM or LRE1 50 μM, 96 hours", "protocol": "as §1"}, "[4]": {"tested_on": "sAC^KO mouse melanocytes", "experiment": "LysoSensor Yellow/Blue DND-160 organelle pH assay", "type": "cell-based", "details": "30 μM, 4 hours", "protocol": "(§2) To determine the pH of the sAC^KO and sAC^FF melanocytes the pH-sensitive vital dye LysoSensor Yellow/Blue DND-160 (Bellono et al. Sci Rep., 6:26570 (2016)) was used. Briefly, cells were incubated with 1 μM LysoSensor DND-160 (Invitrogen) for 5 minutes at 37° C. Lysosensor was excited at 405 nm and its emission detected at 417-483 nm (W1) and 490-530 nm (W2). The ratio of emissions (W1/W2) in Lysosensor-stained puncta was assigned to a pH value based on a calibration curve generated for each experiment using solutions containing 125 mM KCl, 25 mM NaCl, 24 μM monensin, and varying concentrations of MES to adjust the pH to 4, 4.5, 5.0, 5.5, 6.0, 6.5, 7.0, 7.5. The fluorescence ratio was linear for pH 5.0-7.0.\nas §2, with “The effect” for “To determine the pH”, “pharmacologic inhibition of sAC was examined using” for “the sAC^KO and sAC^FF melanocytes”, “vial” for “vital”, “assay, described above.” for “(Bellono et al. Sci Rep., 6:26570 (2016)) was used.”, “Briefly, cultured sAC^FF melanocytes were treated for 4 hours with 30 μM KH7, 30 μM LRE1, or control (untreated). The” for “Briefly,”"}, "[5]": {"tested_on": "sAC^FF mouse melanocytes", "experiment": "LysoSensor Yellow/Blue DND-160 organelle pH assay", "type": "cell-based", "details": "30 μM, 4 hours", "protocol": "as §2\nas §2, with “The effect” for “To determine the pH”, “pharmacologic inhibition of sAC was examined using” for “the sAC^KO and sAC^FF melanocytes”, “vial” for “vital”, “assay, described above.” for “(Bellono et al. Sci Rep., 6:26570 (2016)) was used.”, “Briefly, cultured sAC^FF melanocytes were treated for 4 hours with 30 μM KH7, 30 μM LRE1, or control (untreated). The” for “Briefly,”"}, "[6]": {"tested_on": "C3H/HeJ mice", "experiment": "Topical treatment of epilated back skin, hair pigmentation", "type": "in vivo, mouse", "protocol": "Therefore, experiments were performed to determine whether inhibition of sAC in animals could alter hair pigmentation. Animal experiments were performed in accordance with approved Institutional Animal Care and Use Committee protocol at Weill Cornell Medicine. Age and gender matched C3H/HeJ mice (female, 7 weeks old) were purchased from The Jackson Laboratory. For the analysis of hair pigmentation, the upper and lower dorsum of each mouse were epilated using hair removal wax. 10 μl of KH7 (42 mg/ml in DMSO), LRE1 (28 mg/ml in DMSO) or DMSO (vehicle control) was topically applied onto the upper back and DMSO was applied to the lower back three times a day over two weeks. These mice were monitored for changes in coat color as the epilated hair grew back. Hair was removed from each treated area after 3 weeks to measure the length of the total hair, apical black tip and subapical agouti (pheomelanin) band under a stereo microscope. Mice were euthanized and the treated skin was submitted to a blinded animal pathologist for histological evaluation of the epidermis and hair follicles. This experiment was performed twice with 3-4 mice per cohort (total n=6-7)"}, "[7]": {"tested_on": "sAC^KO mouse melanocytes", "experiment": "DAMP melanosome pH assay (HMB45 co-staining)", "type": "cell-based", "details": "4 hours; for effect on cAMP-dependent rescue of melanosome pH (DAMP): co-incubation with cAMP [Sp-8-CPT-cAMPs], 10 μM; for melanosome pH (DAMP), substance alone: KH7 30 μM, cAMP analogs 500 μM, ESI-09 10 μM, MSH 100 nM", "protocol": "(§3) N-{3-[(2,4-dinitrophenyl)amino]propyl}-N-(3-aminopropyl)methylamine dihydrochloride (DAMP) is a weakly basic amine that is taken up in acidic organelles of live cells and which has been used to measure melanosome pH (Bin et al., PLOS One, 10(6):e0129273 (2015); Tabata et al., Cell Tissue Res., 332(3): 447-460 (2008)). Cells were cultured on sterile glass coverslips in 24-mm wells at 50×10^3 cells/coverslip. […] After permeabilization with 0.1% Triton X-100 in Buffer A at −20° C., the cells were labeled with the supplied anti-DNP antibody (Oxford Biomedical Research) according to kit protocol. Melanosomes were identified using the monoclonal antibody (anti-HMB45, 1:40, Santa Cruz Biotechnology). Fluorescence was detected after secondary staining with Alexa Fluor 546 donkey anti-goat IgG antibody (Invitrogen) and Alexa Fluor 647 donkey anti-mouse IgG antibody (Invitrogen). All quantitative analyses were performed using the Object Count tool in Nikon AR 4.60. For each image, the lower intensity threshold limit of each fluorescence channel was defined as the intensity of the dimmest punctum returned using the 3 points circle threshold tool. The upper intensity threshold limit was set to the maximum value. Equivalent diameter (EqDiameter) was restricted to 1.85-30.00 pixels. Circularity was restricted to 0.20-1.00. Mean fluorescence intensity was measured for all DAMP^+ puncta. Melanosomes were identified as HMB45^+ puncta. DAMP measurements were only recorded when colocalized with HMB45. Frequency distributions were generated for each sample from mean DAMP fluorescence intensity of DAMP^+ melanosomes. All analyses were performed on two replicate coverslips (n≥15 cells per coverslip). Melanosomes were first identified as TRP1^+ or tyrosinase^+ puncta. sAC^+ melanosomes were identified as R52^+ or R21^+ puncta colocalizing with TRP1^+ or tyrosinase^+ puncta. The degree of colocalization between sAC and melanosomes was calculated as the number of sAC+ melanosomes divided by the total number of melanosomes and expressed as a percentage.\n(§4) The effect of pharmacologic inhibition of sAC was also measured using the DAMP assay described above. Briefly, Cells were cultured on sterile glass coverslips in 24-mm wells at 50×10^3 cells/coverslip and treated or not treated for 4 hours with 30 μM KH7 or LRE1. […] After permeabilization with 0.1% Triton X-100 in Buffer A at −20° C., the cells were labeled with the supplied anti-DNP antibody (Oxford Biomedical Research) according to kit protocol. Melanosomes were identified using the monoclonal antibody (anti-HMB45, 1:40, Santa Cruz Biotechnology). Fluorescence was detected after secondary staining with Alexa Fluor 546 donkey anti-goat IgG antibody (Invitrogen) and Alexa Fluor 647 donkey anti-mouse IgG antibody (Invitrogen). All images were acquired using a Zeiss LSM 880 and analyzed using NIS-Elements AR 4.60 (Nikon)."}, "[8]": {"tested_on": "PKA targeted proteins", "experiment": "Western blot of PKA substrate phosphorylation", "type": "cell-based", "details": "mouse and human melanocytes, 4 hours"}, "[9]": {"tested_on": "human melanocytes", "experiment": "DAMP melanosome pH assay (HMB45 co-staining)", "type": "cell-based", "details": "for melanosome pH (DAMP), substance alone: 4 hours, KH7 30 μM, cAMP 500 μM, H89 10 μM, ESI-09 10 μM", "protocol": "as §3\nThe effect of sAC inhibition on melanosome pH was also assessed in human melanocytes."}, "[10]": {"tested_on": "sAC^FF mouse melanocytes", "experiment": "DAMP melanosome pH assay (HMB45 co-staining)", "type": "cell-based", "details": "sAC^FF mouse melanocytes; for melanosome pH (DAMP uptake at HMB45 positive melanosomes), substance alone: 4 hours, KH7 30 μM, cAMP 500 μM, H89 10 μM, PKI 10 μM, ESI-09 10 μM", "protocol": "as §3, §4"}, "[11]": {"tested_on": "human melanocytes", "experiment": "Cellular eumelanin content", "type": "cell-based", "details": "48 hours, KH7 30 μM, ESI-09 10 μM", "protocol": "as §1"}, "[12]": {"details": "topical on back, hair removed after 3 weeks"}, "[13]": {"details": "co-incubation with 30 μM KH7, 4 hours, cAMP analogs 500 μM, MSH 100 nM"}}}
{"compound": "LRE1", "values": [{"measurement": "colour of ear epidermis relative to vehicle control", "setting": "[1]; 20 μl KH7 or LRE1 (28 mg/ml)", "value": "induced visual darkening of mouse ear epidermis"}, {"measurement": "epidermal melanin accumulation (Fontana Masson)", "setting": "[1]", "value": "increase in epidermal melanin accumulation"}, {"measurement": "eumelanin levels", "setting": "[2]", "value": "had no effect"}, {"measurement": "eumelanin levels", "setting": "[3]", "value": "increased eumelanin levels"}, {"measurement": "pH of LysoSensor-visualized organelles", "setting": "[4]", "value": "had no effect"}, {"measurement": "pH of LysoSensor-visualized organelles", "setting": "[5]", "value": "induced an alkaline pH shift"}, {"measurement": "eumelanin production in hair (microscopic examination)", "setting": "[6]; [12]", "value": "increase in eumelanin production"}, {"measurement": "length of the agouti (pheomelanin) band", "setting": "[6]; [12]", "value": "reduction in length of the agouti (pheomelanin) band"}, {"measurement": "histologic examination of treated skin", "setting": "[6]; topical on back, two weeks", "value": "did not reveal any pathological change to the hair follicles or epidermis"}, {"measurement": "colour of regrown hair versus vehicle control", "setting": "[6]; topical on epilated back, 10 μl KH7 42 mg/ml or LRE1 28 mg/ml in DMSO, three times a day over two weeks", "value": "visual darkening of regrown hair"}]}
{"compound": "C[C@@H]1C[C@@H]([C@H](O)CC2CC(=O)NC(=O)C2)C(=O)[C@@H](C)C1", "note": "[cycloheximide]", "values": [{"measurement": "effect on cAMP-dependent rescue of melanosome pH (DAMP)", "setting": "[7]", "value": "did not block the ability of cAMP to rescue pH following sAC inhibition"}]}
{"compound": "O=S(=O)(NCCNC/C=C/c1ccc(Br)cc1)c1cccc2cnccc12", "note": "[H89]", "values": [{"measurement": "phosphorylation of PKA targeted proteins", "setting": "[8]", "value": "dramatic reduction in the phosphorylation of PKA targeted proteins"}, {"measurement": "melanosome pH (DAMP), substance alone", "setting": "[9]", "value": "had no effect on melanosome pH"}, {"measurement": "effect on cAMP-dependent rescue of melanosome pH (DAMP)", "setting": "[7]", "value": "did not block the cAMP-dependent rescue of melanosome pH"}, {"measurement": "melanosome pH (DAMP uptake at HMB45 positive melanosomes), substance alone", "setting": "[10]", "value": "had no effect on melanosome pH"}]}
{"compound": "CO[C@H]1C2OP(=O)(O)OC[C@H]2O[C@H]1n1c(Sc2ccc(O)cc2)nc2c(N)ncnc21", "note": "(stereo partly shown) [8-pHPT-2′-O-Me-cAMP, 8-(4-Hydroxyphenylthio)-2′-O-methyladenosine-3′, 5′-cyclic monophosphate]", "values": [{"measurement": "effect on KH7-induced alkaline shift in melanosome pH (DAMP)", "setting": "[9]; [13]", "value": "mitigate the KH7-induced alkalization of melanosome pH"}, {"measurement": "melanosome pH (DAMP), substance alone", "setting": "[7]", "value": "sufficient to induce melanosome acidification"}, {"measurement": "effect on KH7-induced alkaline shift in melanosome pH (DAMP)", "setting": "[10]; [13]", "value": "mitigate the KH7-induced alkalization of melanosome pH"}]}
{"compound": "CC(C)(C)c1cc(C(=O)C(C#N)=NNc2cccc(Cl)c2)no1", "note": "[ESI-09, 3-(5-tert-butyl-isoxazol-3-yl)-2-((3-chlorophenyl)-hydrazono)-3-oxo-propionitrile]", "values": [{"measurement": "eumelanin level", "setting": "[11]", "value": "induced an increase in eumelanin level"}, {"measurement": "melanosome pH (DAMP), substance alone", "setting": "[9]", "value": "elevated melanosome pH"}, {"measurement": "melanosome pH (DAMP), substance alone", "setting": "[7]", "value": "had no effect on melanosome pH"}, {"measurement": "melanosome pH (DAMP uptake at HMB45 positive melanosomes), substance alone", "setting": "[10]", "value": "elevated melanosome pH"}]}
